Drawing on US9328099B2, “Cyanomethylpyrazole carboxamides as janus kinase inhibitors” (Merck Sharp & Dohme Corp., priority 2011, dated 2016), this text covers IC50 for 29 molecules.

A word on the IC50: it is the concentration that inhibits the measured activity by half.

One assay addresses JAK1 (Homo sapiens (Human), UniProt P23458). Put plainly: Jak Biochemical HTRF Assay, JAK1. Particulars: HTRF biochemical assay, GST-tagged catalytic domain; top concentration tested […]; read-out: JAK1 IC50. The text has this:
(§1) Jak Biochemical HTRF Assay Protocol
(§2) Subsequent reagent additions employed an Agilent Bravo.
(In general: Time-resolved FRET reads energy transfer from a long-lived donor to a nearby acceptor.)

The target in another assay is JAK2 (Homo sapiens (Human), UniProt O60674). Nature of the assay: Jak Biochemical HTRF Assay, JAK2. Particulars: HTRF biochemical assay, GST-tagged catalytic domain; top concentration tested […].
JAK2, sequence (O60674 849-1124): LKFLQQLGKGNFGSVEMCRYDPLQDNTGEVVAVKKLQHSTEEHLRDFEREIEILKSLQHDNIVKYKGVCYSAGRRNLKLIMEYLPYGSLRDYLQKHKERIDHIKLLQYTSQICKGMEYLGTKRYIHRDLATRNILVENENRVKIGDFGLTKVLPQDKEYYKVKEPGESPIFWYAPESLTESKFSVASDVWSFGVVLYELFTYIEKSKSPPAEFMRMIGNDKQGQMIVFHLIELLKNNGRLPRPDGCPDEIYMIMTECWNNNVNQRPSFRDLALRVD
Description: as §1, §2

JAK1, sequence (P23458 875-1153): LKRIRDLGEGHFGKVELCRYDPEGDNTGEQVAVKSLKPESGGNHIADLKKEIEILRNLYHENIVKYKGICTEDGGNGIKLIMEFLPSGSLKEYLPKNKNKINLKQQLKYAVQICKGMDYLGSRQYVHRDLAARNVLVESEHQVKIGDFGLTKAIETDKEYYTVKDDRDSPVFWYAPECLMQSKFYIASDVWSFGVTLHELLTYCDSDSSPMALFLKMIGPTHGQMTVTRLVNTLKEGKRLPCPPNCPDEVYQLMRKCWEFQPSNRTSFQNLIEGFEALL

Take `N#CCC1(n2cc(C(N)=O)c(Nc3ccccc3)n2)CN(C(=O)OCCc2ccccn2)C1` [Example 30-67, 2-pyridin-2-ylethyl 3-[4-carbamoyl-3-(phenylamino)-1H-pyrazol-1-yl]-3-(cyanomethyl)azetidine-1-carboxylate]: the IC50 at JAK1 was determined as 108 nM; against JAK2 it was 849 nM.

On to `N#CCC1(n2cc(C(N)=O)c(Nc3ccccc3)n2)CN(C(=O)OCCCc2cccnc2)C1` [Example 30-68, 3-pyridin-3-ylpropyl 3-[4-carbamoyl-3-(phenylamino)-1H-pyrazol-1-yl]-3-(cyanomethyl)azetidine-1-carboxylate], for which the IC50 was 45 nM on JAK1 and 445 nM at JAK2.

Regarding `COc1ccccc1COC(=O)N1CC(CC#N)(n2cc(C(N)=O)c(Nc3ccccc3)n2)C1` [Example 30-69, 2-methoxybenzyl 3-[4-carbamoyl-3-(phenylamino)-1H-pyrazol-1-yl]-3-(cyanomethyl)azetidine-1-carboxylate], the figures for the IC50 at JAK1 and against JAK2 were 31 nM and 671 nM, respectively.

With `COc1cccc(COC(=O)N2CC(CC#N)(n3cc(C(N)=O)c(Nc4ccccc4)n3)C2)c1` [Example 30-70, 3-methoxybenzyl 3-[4-carbarnoyl-3-(phenylamino)-1H-pyrazol-1-yl]-3-(cyanomethyl)azetidine-1-carboxylate], the IC50 came to 21 nM at JAK1 and 423 nM on JAK2.

Regarding `CN(C)CCCOC(=O)N1CC(CC#N)(n2cc(C(N)=O)c(Nc3ccccc3)n2)C1` [Example 30-71, 3-(dimethylamino)propyl 3-[4-carbamoyl-3-(phenylamino)-1H-pyrazol-1-yl]-3-(cyanomethyl)azetidine-1-carboxylate], the IC50 at JAK1 is 200 nM; against JAK2 it was 1480 nM.

Turning to `CN1CCC(COC(=O)N2CC(CC#N)(n3cc(C(N)=O)c(Nc4ccccc4)n3)C2)CC1` [Example 30-73, (1-methylpiperidin-4-yl)methyl-3-[4-carbamoyl-3-(phenylamino)-1H-pyrazol-1-yl]-3-(cyanomethyl)azetidine-1-carboxylate], the IC50 on JAK1 came out at 130 nM; at JAK2 it was 1480 nM.

As to `CS(=O)(=O)c1ccc(Nc2nn(C3(CC#N)CN(C(=O)OC4CCOC4)C3)cc2C(N)=O)cc1` (stereo not shown) [Example 30-75, tetrahydrofuran-3-yl 3-(4-carbamoyl-3-{[4-(methylsulfonyl)phenyl]amino)-1H-pyrazol-1-yl)-3-(cyanomethyl)azetidine-1-carboxylate], the IC50 came out at 22 nM on JAK1 and 221 nM against JAK2.

`CS(=O)(=O)c1ccc(Nc2nn(C3(CC#N)CN(C(=O)OC4CCOCC4)C3)cc2C(N)=O)cc1` [Example 30-76, tetrahydro-2H-pyran-4-yl 3-(4-carbamoyl-3-{[4-(methylsulfonyl)phenyl]amino}-1H-pyrazol-1-yl)-3-(cyanomethyl)azetidine-1-carboxylate]: the IC50 was 74 nM on JAK1 and 285 nM against JAK2.

For the molecule `C[C@H](OC(=O)N1CCC(CC#N)(n2cc(C(N)=O)c(Nc3ccnc(F)c3)n2)CC1)C1CC1` [Example 30-77, (1S)-1-cyclopropylethyl 4-{4-carbamoyl-3-[(2-fluoropyridin-4-yl)amino]-1H-pyrazol-1-yl}-4-(cyanomethyl)piperidine-1-carboxylate], the IC50 on JAK1 came out at 0.2 nM; against JAK2, 9 nM.

For `C[C@@H](OC(=O)N1CCC(CC#N)(n2cc(C(N)=O)c(Nc3ccnc(F)c3)n2)CC1)C1CC1` [Example 30-78, (1R)-1-cyclopropylethyl 4-{4-carbamoyl-3-[(2-fluoropyridin-4-yl)amino]-1H-pyrazol-1-yl}-4-(cyanomethyl)piperidine-1-carboxylate], the results for the IC50 at JAK1 and against JAK2 were 0.3 nM and 12 nM, respectively.

For `CC(CO)OC(=O)N1CCC(CC#N)(n2cc(C(N)=O)c(Nc3ccc(F)cc3)n2)CC1` (stereo not shown) [Example 31, 2-Hydroxy-1-methylethyl 4-{4-carbamoyl-3-[(4-fluorophenyl)amino]-1H-pyrazol-1-yl}-4-(cyanomethyl)piperidine-1-carboxylate], the IC50 on JAK1 was determined as 0.4 nM; at JAK2 it was 8 nM.

As to `CC(=O)N1CC(CC#N)(n2cc(C(N)=O)c(Nc3ccccc3)n2)C1` [Example 32, 1-[1-Acetyl-3-(cyanomethyl)azetidin-3-yl]-3-(phenylamino)-1H-pyrazole-4-carboxamide], the IC50 on JAK1 came to 94 nM; at JAK2, 510 nM.

Turning to `CCC(=O)N1CCC(CC#N)(n2cc(C(N)=O)c(Nc3ccccc3)n2)CC1` [Example 33-1, 1-[4-(Cyanomethyl)-1-propanoylpiperidin-4-yl]-3-(phenylamino)-1H-pyrazole-4-carboxamide], the values for the IC50 at JAK1 and on JAK2 were 2 nM and 26 nM, respectively.

In the case of `C/C=C/C(=O)N1CCC(CC#N)(n2cc(C(N)=O)c(Nc3ccccc3)n2)CC1` [Example 33-2, 1-{1-[(2E)-but-2-enoyl]-4-(cyanomethyl)piperidin-4-yl}-3-(phenylamino)-1H-pyrazole-4-carboxamide], the IC50 on JAK1 was 2 nM; at JAK2, 64 nM.

As for `N#CCC1(n2cc(C(N)=O)c(Nc3ccccc3)n2)CCN(C(=O)C2CC2)CC1` [Example 34-1, 1-[4-(Cyanomethyl)-1-(cyclopropylcarbonyl)piperidin-4-yl]-3-(phenylamino)-1H-pyrazole-4-carboxamide], the IC50 was 1 nM on JAK1 and 16 nM on JAK2.

For `COCC(=O)N1CCC(CC#N)(n2cc(C(N)=O)c(Nc3ccccc3)n2)CC1` [Example 34-2, 1-[4-(cyanomethyl)-1-(methoxyacetyl)piperidin-4-yl]-3-(phenylamino)-1H-pyrazole-4-carboxamide], the IC50 on JAK1 was 5 nM; on JAK2, 93 nM.

In the case of `CC(C)(C)C(=O)N1CCC(CC#N)(n2cc(C(N)=O)c(Nc3ccccc3)n2)CC1` [Example 34-3, 1-[4-(cyanomethyl)-1-(2,2-dimethylpropanoyl)piperidin-4-yl]-3-(phenylamino)-1H-pyrazole-4-carboxamide], the IC50 at JAK1 was 13 nM; on JAK2 it was 91 nM.

In the case of `CCCCC(=O)N1CCC(CC#N)(n2cc(C(N)=O)c(Nc3ccccc3)n2)CC1` [Example 34-4, 1-[4-(cyanomethyl)-1-pentanoylpiperidin-4-yl]-3-(phenylamino)-1H-pyrazole-4-carboxamide], the concentration for half-maximal inhibition (IC50) at JAK1 was determined as 12 nM; against JAK2, 70 nM.

Take `CN(C)CC(=O)N1CCC(CC#N)(n2cc(C(N)=O)c(Nc3ccccc3)n2)CC1` [Example 34-5, 1-[4-(cyanomethyl)-1-(N,N-dimethylglycyl)piperidin-4-yl]-3-(phenylamino)-1H-pyrazole-4-carboxamide]: the values for the IC50 at JAK1 and on JAK2 were 13 nM and 318 nM, respectively.

`N#CCC1(n2cc(C(N)=O)c(Nc3ccccc3)n2)CCN(C(=O)C2CCCO2)CC1` (stereo not shown) [Example 34-6, 1-[4-(cyanomethyl)-1-(tetrahydrofuran-2-ylcarbonyl)piperidin-4-yl]-3-(phenylamino)-1H-pyrazole-4-carboxamide]: the IC50 on JAK1 was determined as 5 nM; against JAK2 it was 107 nM.

Regarding `N#CCC1(n2cc(C(N)=O)c(Nc3ccccc3)n2)CCN(C(=O)c2ccccc2)CC1` [Example 34-7, 1-[4-(cyanomethyl)-1-(phenylcarbonyl)piperidin-4-yl]-3-(phenylamino)-1H-pyrazole-4-carboxamide], the values for the IC50 on JAK1 and on JAK2 were 6 nM and 94 nM, respectively.

`N#CCC1(n2cc(C(N)=O)c(Nc3ccccc3)n2)CCN(C(=O)c2cccnc2)CC1` [Example 34-8, 1-[4-(cyanomethyl)-1-(pyridin-3-ylcarbonyl)piperidin-4-yl]-3-(phenylamino)-1H-pyrazole-4-carboxamide]: the figures for the IC50 on JAK1 and against JAK2 were 14 nM and 191 nM, respectively.

Take `N#CCC1(n2cc(C(N)=O)c(Nc3ccccc3)n2)CCN(C(=O)c2ccncc2)CC1` [Example 34-10, 1-[4-(cyanomethyl)-1-(pyridin-4-ylcarbonyl)piperidin-4-yl]-3-(phenylamino)-1H-pyrazole-4-carboxamide]: the IC50 on JAK1 is 20 nM; against JAK2 it was 318 nM.

As to `Cc1cc(C(=O)N2CCC(CC#N)(n3cc(C(N)=O)c(Nc4ccccc4)n3)CC2)no1` [Example 34-12, 1-{4-(cyanomethyl)-1-[(5-methylisoxazol-3-yl)carbonyl]piperidin-4-yl}-3-(phenylamino)-1H-pyrazole-4-carboxamide], the IC50 at JAK1 came to 15 nM; on JAK2 it was 195 nM.

Regarding `N#CCC1(n2cc(C(N)=O)c(Nc3ccccc3)n2)CCN(C(=O)C2CCCCC2)CC1` [Example 34-13, 1-[4-(cyanomethyl)-1-(cyclohexylcarbonyl)piperidin-4-yl]-3-(phenylamino)-1H-pyrazole-4-carboxamide], the IC50 on JAK1 was found to be 2 nM; on JAK2, 44 nM.

In the case of `N#CCC1(n2cc(C(N)=O)c(Nc3ccccc3)n2)CCN(C(=O)c2cccs2)CC1` [Example 34-14, 1-[4-(cyanomethyl)-1-(thiophen-2-ylcarbonyl)piperidin-4-yl]-3-(phenylamino)-1H-pyrazole-4-carboxamide], the results for the IC50 at JAK1 and against JAK2 were 0.3 nM and 8 nM, respectively.

On to `N#CCC1(n2cc(C(N)=O)c(Nc3ccccc3)n2)CCN(C(=O)CN2CCCC2=O)CC1` [Example 34-15, 1-{4-(cyanomethyl)-1-[(2-oxopyrrolidin-1-yl)acetyl]piperidin-4-yl}-3-(phenylamino)-1H-pyrazole-4-carboxamide], for which the values for the IC50 on JAK1 and at JAK2 were 5 nM and 194 nM, respectively.

Take `N#CCC1(n2cc(C(N)=O)c(Nc3ccccc3)n2)CCN(C(=O)c2ccsc2)CC1` [Example 34-16, 1-[4-(cyanomethyl)-1-(thiophen-3-ylcarbonyl)piperidin-4-yl]-3-(phenylamino)-1H-pyrazole-4-carboxamide]: the half-maximal inhibitory concentration (IC50) on JAK1 was found to be 2 nM; on JAK2, 35 nM.

As for `N#CCC1(n2cc(C(N)=O)c(Nc3ccccc3)n2)CCN(C(=O)/C=C/c2cccnc2)CC1` [Example 34-17, 1-{4-(cyanomethyl)-1-[(2E)-3-pyridin-3-ylprop-2-enoyl]piperidin-4-yl}-3-(phenylamino)-1H-pyrazole-4-carboxamide], the figures for the IC50 on JAK1 and on JAK2 were 10 nM and 158 nM, respectively.
